Literature values as cited in PubChem BioAssay AID1259409 (Chemical Carcinogenesis Research Information System (CCRIS), 2018).

Test system: rodent chemically induced tumor inhibition, incidence and multiplicity
Experiment: CCRIS tumor inhibitor studies

In the case of O=C(/C=C/c1ccc(O)cc1)c1ccc(O)cc1O, the “tumour outcome (control, treated, inhibition, significance)” value (Carcinogen: 7,12-DIMETHYLBENZ[A]ANTHRACENE, 57-97-6, Dose [Inhibitor]: 0, 0.4 UMOL 2/WK FOR 18 WK BEGINNING 10 D POST CARCINOGEN DOSE (STUDY DURATION: 20 WK), Route [Inhibitor]: DERMAL, Species: MOUSE, Strain/Sex: CD-1/FEMALE, Target Tissue: Type of Lesion: SKIN: PAPILLOMA, Dose [Carcinogen]: 200 NMOL ONCE, Promoter: 12-O-TETRADECANOYLPHORBOL-13-ACETATE, 16561-29-8) is given as 85%, 90%, -6%, not significant, the “tumour outcome (control, treated, inhibition, significance)” value (Carcinogen: 7,12-DIMETHYLBENZ[A]ANTHRACENE, 57-97-6, Dose [Inhibitor]: 0, 10 UMOL 2/WK FOR 18 WK BEGINNING 10 D POST CARCINOGEN DOSE (STUDY DURATION: 20 WK), Route [Inhibitor]: DERMAL, Species: MOUSE, Strain/Sex: CD-1/FEMALE, Target Tissue: Type of Lesion: SKIN: PAPILLOMA, Dose [Carcinogen]: 200 NMOL ONCE, Promoter: 12-O-TETRADECANOYLPHORBOL-13-ACETATE, 16561-29-8) is given as 85%, 50%, 41%, p<0.05 and the “tumour outcome (control, treated, inhibition, significance)” value (Carcinogen: 7,12-DIMETHYLBENZ[A]ANTHRACENE, 57-97-6, Dose [Inhibitor]: 0, 10 UMOL 2/WK FOR 21 WK BEGINNING 10 D POST CARCINOGEN DOSE (STUDY DURATION: 23 WK), Route [Inhibitor]: DERMAL, Species: MOUSE, Strain/Sex: CD-1/FEMALE, Target Tissue: Type of Lesion: SKIN: PAPILLOMA, Dose [Carcinogen]: 200 NMOL ONCE, Promoter: 12-O-TETRADECANOYLPHORBOL-13-ACETATE, 16561-29-8) is given as 90%, 0%, 100%, p<0.05. For the same compound, the “tumour outcome (control, treated, inhibition, significance)” value (Carcinogen: 7,12-DIMETHYLBENZ[A]ANTHRACENE, 57-97-6, Dose [Inhibitor]: 0, 15 UMOL 2/WK FOR 18 WK BEGINNING 10 D POST CARCINOGEN DOSE (STUDY DURATION: 20 WK), Route [Inhibitor]: DERMAL, Species: MOUSE, Strain/Sex: CD-1/FEMALE, Target Tissue: Type of Lesion: SKIN: PAPILLOMA, Dose [Carcinogen]: 200 NMOL ONCE, Promoter: 12-O-TETRADECANOYLPHORBOL-13-ACETATE, 16561-29-8) was 85%, 5%, 95%, p<0.05.

In the case of C/C(=C\c1ccc(C(=O)O)cc1)c1ccc2c(c1)C(C)(C)CCS2, the “tumour outcome (control, treated, inhibition, significance)” value (Carcinogen: 7,12-DIMETHYLBENZ[A]ANTHRACENE, 57-97-6, Dose [Inhibitor]: 1.7 NMOL IN 0.2 ML ACETONE 1 HR PRIOR TO EACH PROMOTER DOSE FOR 12 WK (STUDY DURATION: 14 WK), Route [Inhibitor]: DERMAL, Species: MOUSE, Strain/Sex: SENCAR/FEMALE, Target Tissue: Type of Lesion: SKIN: PAPILLOMA, Dose [Carcinogen]: 200 NMOL IN 0.2 ML ACETONE ONCE, Promoter: 12-O-TETRADECANOYLPHORBOL-13-ACETATE, 16561-29-8) is given as 100%, 100%, 0%, not calculated, the “tumour outcome (control, treated, inhibition, significance)” value (Carcinogen: 7,12-DIMETHYLBENZ[A]ANTHRACENE, 57-97-6, Dose [Inhibitor]: 1.7 NMOL IN 0.2 ML ACETONE 1 HR PRIOR TO EACH PROMOTER DOSE FOR 20 WK (STUDY DURATION: 22 WK), Route [Inhibitor]: DERMAL, Species: MOUSE, Strain/Sex: CD-1/FEMALE, Target Tissue: Type of Lesion: SKIN: PAPILLOMA, Dose [Carcinogen]: 200 NMOL IN 0.2 ML ACETONE ONCE, Promoter: 12-O-TETRADECANOYLPHORBOL-13-ACETATE, 16561-29-8) is given as 94%, 93%, 1%, not calculated and the “tumour outcome (control, treated, inhibition, significance)” value (Carcinogen: 7,12-DIMETHYLBENZ[A]ANTHRACENE, 57-97-6, Dose [Inhibitor]: 17 NMOL IN 0.2 ML ACETONE 1 HR PRIOR TO EACH PROMOTER DOSE FOR 12 WK (STUDY DURATION: 14 WK), Route [Inhibitor]: DERMAL, Species: MOUSE, Strain/Sex: SENCAR/FEMALE, Target Tissue: Type of Lesion: SKIN: PAPILLOMA, Dose [Carcinogen]: 200 NMOL IN 0.2 ML ACETONE ONCE, Promoter: 12-O-TETRADECANOYLPHORBOL-13-ACETATE, 16561-29-8) is given as 100%, 90%, 10%, not calculated. For the same compound, the “tumour outcome (control, treated, inhibition, significance)” value (Carcinogen: 7,12-DIMETHYLBENZ[A]ANTHRACENE, 57-97-6, Dose [Inhibitor]: 17 NMOL IN 0.2 ML ACETONE 1 HR PRIOR TO EACH PROMOTER DOSE FOR 20 WK (STUDY DURATION: 22 WK), Route [Inhibitor]: DERMAL, Species: MOUSE, Strain/Sex: CD-1/FEMALE, Target Tissue: Type of Lesion: SKIN: PAPILLOMA, Dose [Carcinogen]: 200 NMOL IN 0.2 ML ACETONE ONCE, Promoter: 12-O-TETRADECANOYLPHORBOL-13-ACETATE, 16561-29-8) was 94%, 38%, 60%, not calculated, the “tumour outcome (control, treated, inhibition, significance)” value (Carcinogen: 7,12-DIMETHYLBENZ[A]ANTHRACENE, 57-97-6, Dose [Inhibitor]: 170 NMOL IN 0.2 ML ACETONE 1 HR PRIOR TO EACH PROMOTER DOSE FOR 12 WK (STUDY DURATION: 14 WK), Route [Inhibitor]: DERMAL, Species: MOUSE, Strain/Sex: SENCAR/FEMALE, Target Tissue: Type of Lesion: SKIN: PAPILLOMA, Dose [Carcinogen]: 200 NMOL IN 0.2 ML ACETONE ONCE, Promoter: 12-O-TETRADECANOYLPHORBOL-13-ACETATE, 16561-29-8) was 100%, 38%, 62%, not calculated and the “tumour outcome (control, treated, inhibition, significance)” value (Carcinogen: 7,12-DIMETHYLBENZ[A]ANTHRACENE, 57-97-6, Dose [Inhibitor]: 170 NMOL IN 0.2 ML ACETONE 1 HR PRIOR TO EACH PROMOTER DOSE FOR 20 WK (STUDY DURATION: 22 WK), Route [Inhibitor]: DERMAL, Species: MOUSE, Strain/Sex: CD-1/FEMALE, Target Tissue: Type of Lesion: SKIN: PAPILLOMA, Dose [Carcinogen]: 200 NMOL IN 0.2 ML ACETONE ONCE, Promoter: 12-O-TETRADECANOYLPHORBOL-13-ACETATE, 16561-29-8) was 94%, 24%, 74%, not calculated.

In the case of CN(C)CCOc1ccc([C@H]2C[C@]3(C)[C@@H](O)CC[C@H]3[C@@H]3CCc4cc(O)ccc4[C@H]32)cc1, the “tumour outcome (control, treated, inhibition, significance)” value (Carcinogen: ESTRADIOL, 50-28-2, Dose [Inhibitor]: 0, 25 MG/PELLET 2 PELLETS IMPLANTED EVERY 3 MO BEGINNING 15 D PRIOR TO CARCINOGEN DOSE (STUDY DURATION: 8 MO), Route [Inhibitor]: SUBCUTANEOUS IMPLANT, Species: HAMSTER, Strain/Sex: SYRIAN/MALE, Target Tissue: Type of Lesion: KIDNEY: TUMOR, Dose [Carcinogen]: 25 MG PELLET IMPLANTED EVERY 3 MO, Promoter: NONE USED) is listed as 5/5 (100%), 7/8 (88%), 12%, not significant.

For O=S(=O)([O-])[O-].O=S(=O)([O-])[O-].O=S(=O)([O-])[O-].[Fe+3].[Fe+3], the “tumour outcome (control, treated, inhibition, significance)” value (Dose [Inhibitor]: 0, 15.5 UMOL (FE) INJECTED WITH CARCINOGEN INTO THIGH OF BOTH HIND LIMBS (STUDY DURATION: 79 WK), Route [Inhibitor]: INTRAMUSCULAR, Species: RAT, Strain/Sex: F344/MALE, Target Tissue: Type of Lesion: INJECTION SITE: SARCOMA, Dose [Carcinogen]: 2.5 MG PER SITE INJECTED INTO THIGH OF BOTH HIND LIMBS ONCE, Promoter: NONE USED) is listed as 100%, 98%, 2%, not significant, the “tumour outcome (control, treated, inhibition, significance)” value (Dose [Inhibitor]: 0, 30 UMOL (FE) INJECTED WITH CARCINOGEN INTO THIGH OF BOTH HIND LIMBS (STUDY DURATION: 79 WK), Route [Inhibitor]: INTRAMUSCULAR, Species: RAT, Strain/Sex: F344/MALE, Target Tissue: Type of Lesion: INJECTION SITE: SARCOMA, Dose [Carcinogen]: 2.5 MG PER SITE INJECTED INTO THIGH OF BOTH HIND LIMBS ONCE, Promoter: NONE USED) is listed as 100%, 45%, 55%, not calculated and the “tumour outcome (control, treated, inhibition, significance)” value (Dose [Inhibitor]: 0, 60 UMOL (FE) INJECTED INTO NAPE OF NECK (STUDY DURATION: 79 WK), Route [Inhibitor]: SUBCUTANEOUS, Species: RAT, Strain/Sex: F344/MALE, Target Tissue: Type of Lesion: INJECTION SITE: SARCOMA, Dose [Carcinogen]: 2.5 MG PER SITE INJECTED INTO THIGH OF BOTH HIND LIMBS, Promoter: NONE USED) is listed as 100%, 100%, 0%, not significant. The “tumour outcome (control, treated, inhibition, significance)” value (Dose [Inhibitor]: 0, 60 UMOL (FE) INJECTED WITH CARCINOGEN INTO THIGH OF BOTH HIND LIMBS (STUDY DURATION: 79 WK), Route [Inhibitor]: INTRAMUSCULAR, Species: RAT, Strain/Sex: F344/MALE, Target Tissue: Type of Lesion: INJECTION SITE: SARCOMA, Dose [Carcinogen]: 2.5 MG PER SITE INJECTED INTO THIGH OF BOTH HIND LIMBS ONCE, Promoter: NONE USED) was 100%, 35%, 65%, not calculated.

For CCNC(=O)\C=C(C)/C=C/C=C(C)/C=C/C1=C(C)CCCC1(C)C, the “tumour outcome (control, treated, inhibition, significance)” value (Carcinogen: N-BUTYL-N-(4-HYDROXYBUTYL)NITROSAMINE, 3817-11-6, Dose [Inhibitor]: 1.5 MMOL/KG DIET DAILY FOR 153 D STARTING ONE WK AFTER THE FINAL CARCINOGEN DOSE (STUDY DURATION: 210 D), Route [Inhibitor]: ORAL, Species: MOUSE, Strain/Sex: BDF/MALE, Target Tissue: Type of Lesion: URINARY BLADDER: TRANSITIONAL CELL CARCINOMA, Dose [Carcinogen]: 7.5 MG 1/WK FOR 8 WK, Promoter: NONE USED) is listed as 35/99 (35%), 19/96 (20%), 43%, p<0.05 and the “tumour outcome (control, treated, inhibition, significance)” value (Carcinogen: N-BUTYL-N-(4-HYDROXYBUTYL)NITROSAMINE, 3817-11-6, Dose [Inhibitor]: 1.5 MMOL/KG IN DIET DAILY FOR 153 D STARTING ONE WK AFTER THE LAST CARCINOGEN DOSE (STUDY DURATION: 210 D), Route [Inhibitor]: ORAL, Species: MOUSE, Strain/Sex: BDF/MALE, Target Tissue: Type of Lesion: URINARY BLADDER: TRANSITIONAL CELL CARCINOMA, Dose [Carcinogen]: 7.5 MG 1/WK FOR 8 WK, Promoter: NONE USED) is listed as 35/99 (35%), 19/96 (20%), 43%, p<0.05.
